Data reported in ChEMBL document CHEMBL4613209, “Quinolone hybrids and their anti-cancer activities: An overview” (Eur J Med Chem, 2019).

Experiments:
HCT-116 [1] = test: Anticancer activity against human HCT116 cells after 48 hrs by SRB assay; format: functional, cell-based; conditions: HCT-116, 48 h
HeLa [2] = test: Anticancer activity against human HeLa cells after 48 hrs by SRB assay; format: functional, cell-based
MCF7 [3] = test: Anticancer activity against human MCF7 cells after 48 hrs by SRB assay; format: functional, cell-based; conditions: MCF7, 48 h
HL-60 [4] = test: Potency index, ratio of IC50 for etoposide to IC50 for test compound for anticancer activity against human HL60 cells after 48 hrs by SRB assay; format: functional
PANC-1 [5] = test: Potency index, ratio of IC50 for etoposide to IC50 for test compound for anticancer activity against human PANC1 cells after 48 hrs by SRB assay; format: functional
A549 [6] = test: Potency index, ratio of IC50 for etoposide to IC50 for test compound for anticancer activity against human A549 cells after 48 hrs by SRB assay; format: functional
A549 [7] = test: Anticancer activity against human A549 cells after 48 hrs by SRB assay; format: functional, cell-based; conditions: A549, 48 h
MCF7 [8] = test: Potency index, ratio of IC50 for etoposide to IC50 for test compound for anticancer activity against human MCF7 cells after 48 hrs by SRB assay; format: functional
HCT-116 [9] = test: Potency index, ratio of IC50 for etoposide to IC50 for test compound for anticancer activity against human HCT116 cells after 48 hrs by SRB assay; format: functional
HL-60 [10] = test: Anticancer activity against human HL60 cells after 48 hrs by SRB assay; format: functional, cell-based; conditions: HL-60, 48 h
DU-145 [11] = test: Potency index, ratio of IC50 for etoposide to IC50 for test compound for anticancer activity against human DU145 cells after 48 hrs by SRB assay; format: functional
HepG2 = test: Anticancer activity against human HepG2 cells after 48 hrs by SRB assay; format: functional, cell-based; conditions: HepG2, 48 h
PANC-1 [12] = test: Anticancer activity against human PANC1 cells after 48 hrs by SRB assay; format: functional, cell-based; conditions: PANC-1, 48 h
MCF7-DOX [13] = test: Anticancer activity against human MCF7/Dox cells after 48 hrs by SRB assay; format: functional, cell-based
DU-145 [14] = test: Anticancer activity against human DU145 cells after 48 hrs by SRB assay; format: functional, cell-based; conditions: DU-145, 48 h
SK-OV-3 [15] = test: Anticancer activity against human SKOV3 cells after 48 hrs by SRB assay; format: functional, cell-based; conditions: SK-OV-3, 48 h
HeLa [16] = test: Potency index, ratio of IC50 for etoposide to IC50 for test compound for anticancer activity against human HeLa cells after 48 hrs by SRB assay; format: functional
MCF7-DOX [17] = test: Potency index, ratio of IC50 for etoposide to IC50 for test compound for anticancer activity against human MCF7/Dox cells after 48 hrs by SRB assay; format: functional
SK-OV-3 [18] = test: Potency index, ratio of IC50 for etoposide to IC50 for test compound for anticancer activity against human SKOV3 cells after 48 hrs by SRB assay; format: functional
HL-60 [19] = test: Cytotoxicity against human HL60 cells assessed as reduction in cell viability; format: functional, cell-based
CAPAN-1 [20] = test: Potency index, ratio of IC50 for doxorubicin to IC50 for test compound for cytotoxicity against human Capan1 cells assessed as reduction in cell viability; format: functional
Hep 3B2 [21] = test: Potency index, ratio of IC50 for doxorubicin to IC50 for test compound for cytotoxicity against human Hep3B cells assessed as reduction in cell viability; format: functional
HL-60 [22] = test: Potency index, ratio of IC50 for doxorubicin to IC50 for test compound for cytotoxicity against human HL60 cells assessed as reduction in cell viability; format: functional
Hep 3B2 [23] = test: Cytotoxicity against human Hep3B cells assessed as reduction in cell viability; format: functional, cell-based
CAPAN-1 [24] = test: Cytotoxicity against human Capan1 cells assessed as reduction in cell viability; format: functional, cell-based
Hep 3B2 [25] = test: Anticancer activity against human Hep3B cells after 48 to 72 hrs by MTT assay; format: functional, cell-based
K562 = test: Anticancer activity against human K562 cells after 48 to 72 hrs by MTT assay; format: functional, cell-based
HCT-116 [26] = test: Anticancer activity against human HCT116 cells after 48 to 72 hrs by MTT assay; format: functional, cell-based
Jurkat = test: Anticancer activity against human Jurkat cells after 48 to 72 hrs by MTT assay; format: functional, cell-based
SMMC-7721 [27] = test: Anticancer activity against human SMMC7721 cells after 48 to 72 hrs by MTT assay; format: functional, cell-based
SK-MEL3 = test: Cytotoxicity against human SK-MEL-3 cells assessed as reduction in cell viability by MTT assay; format: functional, cell-based
SW480 = test: Cytotoxicity against human SW480 cells assessed as reduction in cell viability by MTT assay; format: functional, cell-based
MCF7 [28] = test: Cytotoxicity against human MCF7 cells assessed as reduction in cell viability after 72 hrs by MTT assay; format: functional, cell-based; conditions: MCF7, 72 h
EJ = test: Cytotoxicity against human EJ cells assessed as reduction in cell viability by MTT assay; format: functional, cell-based
MCF7 [29] = test: Cytotoxicity against human MCF7 cells assessed as reduction in cell viability by MTT assay; format: functional, cell-based
MCF7 [30] = test: Potency index, ratio of IC50 for etoposide to IC50 for test compound for cytotoxicity against human MCF7 cells assessed as reduction in cell viability after 72 hrs by MTT assay; format: functional
A-431 = test: Cytotoxicity against human A431 cells assessed as reduction in cell viability by MTT assay; format: functional, cell-based
Caspase-3 = Caspase-3 (Homo sapiens, UniProt P42574); test: Activation of caspase 3 in human SMMC7721 cells; format: cell-based, SMMC-7721
Apoptosis regulator BAX = Apoptosis regulator BAX (Homo sapiens, UniProt Q07812); test: Activation of Bax in human SMMC7721 cells; format: cell-based, SMMC-7721
SMMC-7721 [31] = test: Antiproliferative activity against human SMMC7721 cells after 24 to 72 hrs by MTT assay; format: functional, cell-based
HL-60 [32] = test: Antiproliferative activity against human HL60 cells after 24 to 72 hrs by MTT assay; format: functional, cell-based
Hep 3B2 [33] = test: Antiproliferative activity against human Hep3B cells after 24 to 72 hrs by MTT assay; format: functional, cell-based
L1210 [34] = test: Antiproliferative activity against mouse L1210 cells after 24 to 72 hrs by MTT assay; format: functional, cell-based
[35] = target: Cellular tumor antigen p53 (Homo sapiens, UniProt P04637); test: Activation of p53 in human SMMC7721 cells; format: cell-based, SMMC-7721
Caspase-9 = Caspase-9 (Homo sapiens, UniProt P55211); test: Activation of caspase 9 in human SMMC7721 cells; format: cell-based, SMMC-7721
T47D = test: Cytotoxicity against human T47D cells assessed as reduction in cell viability after 48 hrs by MTT assay; format: functional, cell-based
[36] = Toxicity in mouse xenografted with human MB-9812 cells
MDA-MB-231 = test: Cytotoxicity against human MDA-MB-231 cells assessed as reduction in cell viability after 48 hrs by MTT assay; format: functional, cell-based; conditions: MDA-MB-231, 48 h
[37] = Toxicity in mouse xenografted with human CX-1 cells; conditions: in vivo
MCF7 [38] = test: Cytotoxicity against human MCF7 cells assessed as reduction in cell viability after 48 hrs by MTT assay; format: functional, cell-based; conditions: MCF7, 48 h
HeLa [39] = test: Cytotoxicity against human HeLa cells assessed as reduction in cell viability after 24 to 72 hrs by MTT assay; format: functional, cell-based
L1210 [40] = test: Cytotoxicity against mouse L1210 cells assessed as reduction in cell viability after 24 to 72 hrs by MTT assay; format: functional, cell-based

Sequence of Apoptosis regulator BAX (Q07812 whole entry): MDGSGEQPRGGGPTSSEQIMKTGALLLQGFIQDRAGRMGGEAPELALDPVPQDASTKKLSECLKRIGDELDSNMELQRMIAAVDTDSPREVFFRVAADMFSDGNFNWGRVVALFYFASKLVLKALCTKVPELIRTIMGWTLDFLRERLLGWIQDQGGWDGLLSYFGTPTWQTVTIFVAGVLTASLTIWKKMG
Sequence of Cellular tumor antigen p53 (P04637 whole entry): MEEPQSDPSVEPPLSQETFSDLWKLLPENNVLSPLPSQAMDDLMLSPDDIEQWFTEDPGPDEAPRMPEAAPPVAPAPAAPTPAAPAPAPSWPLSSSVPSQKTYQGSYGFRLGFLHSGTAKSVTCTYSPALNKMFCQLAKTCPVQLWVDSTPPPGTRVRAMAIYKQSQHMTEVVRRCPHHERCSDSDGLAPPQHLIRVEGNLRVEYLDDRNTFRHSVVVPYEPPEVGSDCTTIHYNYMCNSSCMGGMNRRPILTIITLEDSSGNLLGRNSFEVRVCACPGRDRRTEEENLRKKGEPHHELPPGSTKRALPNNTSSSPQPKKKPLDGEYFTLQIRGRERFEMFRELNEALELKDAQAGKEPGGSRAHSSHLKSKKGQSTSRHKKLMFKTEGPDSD
Sequence of Caspase-3 (P42574 29-175 limits assumed): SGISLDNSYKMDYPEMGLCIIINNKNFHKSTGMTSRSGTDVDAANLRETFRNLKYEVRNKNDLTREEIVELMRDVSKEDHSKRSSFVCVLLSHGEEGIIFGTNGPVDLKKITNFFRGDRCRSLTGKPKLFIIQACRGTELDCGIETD
Sequence of Caspase-3 (P42574 176-277 limits assumed): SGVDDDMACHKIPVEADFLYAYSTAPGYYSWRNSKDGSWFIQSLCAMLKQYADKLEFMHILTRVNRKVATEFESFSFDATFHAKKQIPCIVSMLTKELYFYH
Sequence of Caspase-9 (P55211 1-315 limits assumed): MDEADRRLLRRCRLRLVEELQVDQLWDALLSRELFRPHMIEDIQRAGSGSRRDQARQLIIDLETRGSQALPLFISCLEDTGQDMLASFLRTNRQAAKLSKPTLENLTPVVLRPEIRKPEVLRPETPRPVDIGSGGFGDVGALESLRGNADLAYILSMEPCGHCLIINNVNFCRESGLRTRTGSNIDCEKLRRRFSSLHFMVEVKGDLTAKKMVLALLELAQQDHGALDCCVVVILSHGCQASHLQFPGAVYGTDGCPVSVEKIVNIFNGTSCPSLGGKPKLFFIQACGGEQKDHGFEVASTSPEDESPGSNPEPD
Sequence of Caspase-9 (P55211 331-416 limits assumed): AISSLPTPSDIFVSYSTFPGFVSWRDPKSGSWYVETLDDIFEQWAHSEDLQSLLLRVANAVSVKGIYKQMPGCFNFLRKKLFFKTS

CC1(CN)CN(c2ccc3c(=O)c(C(=O)O)cn(-c4nccs4)c3n2)C/C1=N/OCc1ccccc1 (stereo not drawn)
IC50 (HCT-116 [1]): 0.5 to 6.25 µM
IC50 (HeLa [2]): 0.5 to 6.25 µM
IC50 (MCF7 [3]): 0.5 to 6.25 µM
Ratio IC50 (HL-60 [4]): >=1.3 - 100
Ratio IC50 (PANC-1 [5]): >=1.3 - 100
Ratio IC50 (A549 [6]): >=1.3 - 100
IC50 (A549 [7]): 0.5 to 6.25 µM
Ratio IC50 (MCF7 [8]): >=1.3 - 100
Ratio IC50 (HCT-116 [9]): >=1.3 - 100
IC50 (HL-60 [10]): 0.5 to 6.25 µM
Ratio IC50 (DU-145 [11]): >=1.3 - 100
IC50 (HepG2): 0.5 to 6.25 µM
IC50 (PANC-1 [12]): 0.5 to 6.25 µM
IC50 (MCF7-DOX [13]): 0.5 to 6.25 µM
IC50 (DU-145 [14]): 0.5 to 6.25 µM
IC50 (SK-OV-3 [15]): 0.5 to 6.25 µM
Ratio IC50 (HeLa [16]): >=1.3 - 100
Ratio IC50 (MCF7-DOX [17]): >=1.3 - 100
Ratio IC50 (SK-OV-3 [18]): >=1.3 - 100

CN1CCN(c2cc3c(cc2F)c(=O)c(-c2nc4s/c(=C\c5ccc(S(N)(=O)=O)cc5)c(=O)n4n2)cn3C2CC2)CC1
IC50 (HL-60 [19]): 1.5 µM
Ratio IC50 (CAPAN-1 [20]): 2.3 - 5.6
Ratio IC50 (Hep 3B2 [21]): 2.3 - 5.6
Ratio IC50 (HL-60 [22]): 2.3 - 5.6
IC50 (Hep 3B2 [23]): 0.7 µM
IC50 (CAPAN-1 [24]): 0.3 µM

O=c1c(/C(CCN2CCOCC2)=N/Nc2ccccc2)c(O)c2ccccc2n1-c1ccccc1
IC50 (Hep 3B2 [25]): < 20 mg/L
IC50 (K562): < 20 mg/L

COc1cc(/C=N/n2c(SCc3ccccc3)nnc2-c2cn(C3CC3)c3cc(N4CCNCC4)c(F)cc3c2=O)cc(OC)c1OC
IC50 (HCT-116 [26]): < 50 µM
IC50 (Jurkat): < 50 µM
IC50 (SMMC-7721 [27]): < 50 µM

CCn1cc(C(=O)O)c(=O)c2cc(F)c(N3CCN(C/C(=N/OC)c4ccc(Cl)s4)CC3)cc21
IC50 (SK-MEL3): ≤ 20 µM
IC50 (SW480): ≤ 20 µM
IC50 (MCF7 [28]): 2.5 to 5 µM
IC50 (EJ): ≤ 20 µM
IC50 (MCF7 [29]): ≤ 20 µM
Ratio IC50 (MCF7 [30]): 4.64
IC50 (A-431): ≤ 20 µM

O=C(N/N=C/c1ccc2c(c1)OCO2)c1cn(C2CC2)c2cc(N3CCNCC3)c(F)cc2c1=O
IC50 (Caspase-3): 3 to 7.39 µM
IC50 (Apoptosis regulator BAX): 3 to 7.39 µM
IC50 (SMMC-7721 [31]): 1.4 to 52.3 µM
IC50 (HL-60 [32]): 1.4 to 52.3 µM
IC50 (Hep 3B2 [33]): 1.4 to 52.3 µM
IC50 (L1210 [34]): 1.4 to 52.3 µM
IC50 [35]: 3 to 7.39 µM
IC50 (Caspase-9): 3 to 7.39 µM

COc1cc([C@@H]2c3cc4c(cc3[C@@H](O[C@@H]3O[C@@H]5CO[C@@H](C)O[C@H]5[C@H](O)[C@H]3O)[C@H]3COC(=O)[C@H]23)OCO4)cc(OC)c1O [ETOPOSIDE]
IC50 (HCT-116 [1]): 2.91 to 50 µM
IC50 (HeLa [2]): 2.91 to 50 µM
IC50 (MCF7 [3]): 2.91 to 50 µM
IC50 (A549 [7]): 2.91 to 50 µM
IC50 (T47D): 11.8 to 15.7 µM
LD50 [36]: 64 mg/kg
IC50 (MCF7 [28]): 2.91 to 50 µM
IC50 (HL-60 [10]): 2.91 to 50 µM
IC50 (MDA-MB-231): 11.8 to 15.7 µM
LD50 [37]: 64 mg/kg
IC50 (MCF7 [38]): 11.8 to 15.7 µM
IC50 (HepG2): 2.91 to 50 µM
IC50 (PANC-1 [12]): 2.91 to 50 µM
IC50 (MCF7-DOX [13]): 2.91 to 50 µM
IC50 (DU-145 [14]): 2.91 to 50 µM
IC50 (SK-OV-3 [15]): 2.91 to 50 µM

CCOC(=O)c1cn(CC)c2c(ccc3n[se]nc32)c1=O
IC50 (HeLa [39]): ≤ 100 µM
IC50 (L1210 [40]): ≤ 100 µM
